One assay concerns HT1080 cells. The assay can be described thus: Cellular assay for IDH1m inhibitors: inhibition of 2-HG production (LC-MS, 48 hours) in HT1080 cells. Particulars: Homo sapiens, HT-1080; inhibition of 2-HG production, HT1080 cells; read-out: HT1080 IC50. In kind it is cell-based. As for the experimental part: Cells (e.g., HT1080 or U87MG) and are grown in T125 flasks in DMEM containing 10% FBS, 1× penicillin/streptomycin and 500 ug/mL G418. They are harvested by trypsin and seeded into 96 well white bottom plates at a density of 5000 cell/well in 100 ul/well in DMEM with 10% FBS. No cells are plates in columns 1 and 12. Cells are incubated overnight at 37° C. in 5% CO2. The next day compounds are made up at 2× concentration and 100 ul are added to each cell well. The final concentration of DMSO is 0.2% and the DMSO control wells are plated in row G. The plates are then placed in the incubator for 48 hours. At 48 hours, 100 μl of media is removed from each well and analyzed by LC-MS for 2-HG concentrations. The cell plate is placed back in the incubator for another 24 hours. At 72 hours post compound addition, 10 mL/plate of Promega Cell Titer Glo reagent is thawed and mixed. The cell plate is removed from the incubator and allowed to equilibrate to room temperature. Then 100 ul of reagent is added to each well of media. The cell plate is then placed on an orbital shaker for 10 minutes and then allowed to sit at room temperature for 20 minutes. The plate is then read for luminescence with an integration time of 500 ms.
The IC50 for inhibition of 2-HG production (concentration of test compound to reduce 2HG production by 50% compared to control) in these two cell lines for various compounds of formula I is set forth in Table 4 above.

A further assay deals with IDH1 R132H (Homo sapiens, UniProt O75874, R132H). The assay can be described thus: Assay for IDH1 R132H inhibitors (NADPH/aKG, resazurin detection). The conditions noted are these: enzyme assay of Example 12; read-out: IDH1R132H IC50. In kind it is biochemical. In outline: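 Read-out is resorufin fluorescence (Ex544/Em590) 5 min after adding a 30 μM resazurin detection mix. Before that, mutant enzyme (0.2 μg/ml in its mix) ran 50 min at room temperature with compound, 8 uM NADPH and 2 mM aKG (mix levels) in Tris pH 7.5 with NaCl, MgCl2, BSA.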
A general note: Resazurin is reduced to fluorescent resorufin, in cell work by metabolically active cells.

pIC50: −log10 of the molar value.

Chain of IDH1 R132H (O75874 whole entry R132H): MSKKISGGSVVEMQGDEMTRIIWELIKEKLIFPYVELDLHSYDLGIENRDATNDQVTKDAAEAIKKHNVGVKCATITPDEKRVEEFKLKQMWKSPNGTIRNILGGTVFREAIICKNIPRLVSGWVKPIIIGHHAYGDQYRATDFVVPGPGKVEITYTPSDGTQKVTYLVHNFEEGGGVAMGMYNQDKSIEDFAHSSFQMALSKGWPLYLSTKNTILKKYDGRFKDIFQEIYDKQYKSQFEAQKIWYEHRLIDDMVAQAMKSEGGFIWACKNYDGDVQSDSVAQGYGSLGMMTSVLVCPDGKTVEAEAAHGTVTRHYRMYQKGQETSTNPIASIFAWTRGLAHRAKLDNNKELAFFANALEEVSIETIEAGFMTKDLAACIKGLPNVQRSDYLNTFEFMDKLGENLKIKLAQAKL

Consider `C=Cc1cc(-c2cc(C#N)c(N3CCN(C(=O)C4CC4)[C@@H](C4CC4)C3)nc2C2CC2)ncn1` [Compound 578, (S)-2-(4-(cyclopropanecarbonyl)-3-cyclopropylpiperazin-1-yl)-6-cyclopropyl-5-(6-vinylpyrimidin-4-yl)nicotinonitrile], for which the negative logarithm of the IC50 (pIC50) with HT1080 cells and at IDH1 R132H was > 6.30 each time.

`C=Cc1cc(-c2cc(C#N)c(N3CCN(C(=O)CCC=O)[C@H](C)C3)nc2C2CC2)ccn1` [Compound 607, (R)-2-cyclopropyl-6-(3-methyl-4-(4-oxobutanoyl)piperazin-1-yl)-2′-vinyl-[3,4′-bipyridine]-5-carbonitrile]: the pIC50 with HT1080 cells and on IDH1 R132H was > 6.30 each time.

Turning to `N#Cc1cc(-c2cccc3cnc(Cl)cc23)c(C2CC2)nc1N1CCN(C(=O)C2CC2)[C@H](C2CC2)C1` [Compound 555, (R)-5-(3-chloroisoquinolin-5-yl)-2-(4-(cyclopropanecarbonyl)-3-cyclopropylpiperazin-1-yl)-6-cyclopropylnicotinonitrile], the pIC50 is 6.00 to 6.30 in the assay on HT1080 cells and > 6.30 on IDH1 R132H.

In the case of `C=Cc1cc(Nc2c(C3CC3)nc(N3CCN(C(=O)CCOC)[C@H](C(C)C)C3)c(C#N)c2C)ccn1` [Compound 807, (R)-6-cyclopropyl-2-(3-isopropyl-4-(3-methoxypropanoyl)piperazin-1-yl)-4-methyl-5-((2-vinylpyridin-4-yl)amino)nicotinonitrile], the negative-log IC50 (pIC50) with HT1080 cells and at IDH1 R132H was > 6.30 each time.

`N#Cc1ccc2c(-c3cc(C#N)c(N4CCN(C(=O)CC(F)(F)F)[C@H](C5CC5)C4)nc3C3CC3)cccc2n1` [Compound 535, (R)-5-(5-cyano-2-cyclopropyl-6-(3-cyclopropyl-4-(3,3,3-trifluoropropanoyl)piperazin-1-yl)pyridin-3-yl)quinoline-2-carbonitrile]: the negative logarithm of the IC50 (pIC50) with HT1080 cells and at IDH1 R132H was > 6.30 throughout.

As for `C=Cc1nccc(-c2cc(C#N)c(N3CCN(C(=O)C4CC4)[C@H](C4CC4)C3)nc2C2CC2)c1F` [Compound 520, (R)-6-(4-(cyclopropanecarbonyl)-3-cyclopropylpiperazin-1-yl)-2-cyclopropyl-3′-fluoro-2′-vinyl-3,4′-bipyridine-5-carbonitrile], the pIC50 was > 6.30 in the assay on HT1080 cells and 6.00 to 6.30 on IDH1 R132H.

For `C#CC(=O)N1CCC=C(c2cc(C#N)c(N3CCN(C(=O)C4CC4)[C@H](C)C3)nc2C2CC2)C1` [Compound 594, (R)-2-(4-(cyclopropanecarbonyl)-3-methylpiperazin-1-yl)-6-cyclopropyl-5-(1-propioloyl-1,2,5,6-tetrahydropyridin-3-yl)nicotinonitrile], the negative-log IC50 (pIC50) in the assay with HT1080 cells and at IDH1 R132H was > 6.30 throughout.

With `C=Cc1nc(-c2cc(C#N)c(N3CCN(C(=O)C4CC4)[C@H](C4CC4)C3)nc2C2CC2)c2ccccc2n1` [Compound 669, (R)-2-(4-(cyclopropanecarbonyl)-3-cyclopropylpiperazin-1-yl)-6-cyclopropyl-5-(2-vinylquinazolin-4-yl)nicotinonitrile], the pIC50 in the assay on HT1080 cells and at IDH1 R132H was > 6.30 each time.

With `C=Cc1cc(N(C(C)=O)c2cc(C#N)c(N3CCN(C(=O)CCOC)[C@H](C)C3)nc2C2CC2)ccn1` [Compound 662, (R)—N-(5-cyano-2-cyclopropyl-6-(4-(3-methoxypropanoyl)-3-methylpiperazin-1-yl)pyridin-3-yl)-N-(2-vinylpyridin-4-yl)acetamide], the negative-log IC50 (pIC50) with HT1080 cells and on IDH1 R132H was > 6.30 throughout.

Take `CCO[C@H]1C[C@@H]1C(=O)N1CCN(c2nc(C3CC3)c(-c3cccc4cnccc34)cc2C#N)C[C@H]1C1CC1` [Compound 514, 6-cyclopropyl-2-((R)-3-cyclopropyl-4 ((1S,2S)-2-ethoxycyclopropanecarbonyl)piperazin-1-yl)-5-(isoquinolin-5-yl)nicotinonitrile]: the negative logarithm of the IC50 (pIC50) with HT1080 cells and at IDH1 R132H was > 6.30 in each case.

On to `C=C(C)c1cc(-c2cc(C#N)c(N3CCN(C(=O)CCOC)[C@H](C)C3)nc2C2CC2)ncn1` [Compound 598, (R)-6-cyclopropyl-2-(4-(3-methoxypropanoyl)-3-methylpiperazin-1-yl)-5-(6-(prop-1-en-2-yl)pyrimidin-4-yl)nicotinonitrile], for which the negative logarithm of the IC50 (pIC50) was 6.00 to 6.30 in the assay on HT1080 cells and > 6.30 at IDH1 R132H.

In the case of `C=CC(=O)N(c1cc(C#N)c(N2CCN(C(=O)CCOC)[C@H](C)C2)nc1C1CC1)c1ccnc2ccccc12` [Compound 712, (R)—N-(5-cyano-2-cyclopropyl-6-(4-(3-methoxypropanoyl)-3-methylpiperazin-1-yl)pyridin-3-yl)-N-(quinolin-4-yl)acryl amide], the pIC50 in the assay on HT1080 cells is 5.00 to 6.00; on IDH1 R132H, > 6.30.

As for `C=Cc1ccc2c(-c3cc(C#N)c(N4CCN(C(=O)CCO)[C@H](C5CC5)C4)nc3C3CC3)cccc2n1` [Compound 569, (R)-6-cyclopropyl-2-(3-cyclopropyl-4-(3-hydroxypropanoyl)piperazin-1-yl)-5-(2-vinylquinolin-5-yl)nicotinonitrile], the pIC50 with HT1080 cells and at IDH1 R132H was > 6.30 throughout.

For the molecule `C=Cc1cc(-c2cc(C#N)c(N3CCN(C(=O)CN4CCC4=O)[C@H](C4CC4)C3)nc2C2CC2)ccn1` [Compound 818], the pIC50 in the assay on HT1080 cells and at IDH1 R132H was > 6.30 each time.

Regarding `C=C(F)c1cc(-c2cc(C#N)c(N3CCN(C(=O)CCOC)[C@H](C)C3)nc2C2CC2)ncn1` [Compound 602, (R)-6-cyclopropyl-5-(6-(1-fluorovinyl)pyrimidin-4-yl)-2-(4-(3-methoxypropanoyl)-3-methylpiperazin-1-yl)nicotinonitrile], the pIC50 in the assay with HT1080 cells and at IDH1 R132H was > 6.30 throughout.

In the case of `C=Cc1cc(-c2cc(C#N)c(N3CCN(C(=O)CCO)[C@H](C4CC4)C3)nc2C2CC2)c2cccnc2n1` [Compound 655, (R)-6-cyclopropyl-2-(3-cyclopropyl-4-(3-hydroxypropanoyl)piperazin-1-yl)-5-(2-vinyl-1,8-naphthyridin-4-yl)nicotinonitrile], the pIC50 with HT1080 cells and on IDH1 R132H was > 6.30 in each case.

Consider `C=Cc1cc(-c2cc(C#N)c(N3CCN(C(=O)C[C@H]4CCCO4)[C@H](C4CC4)C3)nc2C2CC2)ccn1` [Compound 822], for which the negative logarithm of the IC50 (pIC50) in the assay on HT1080 cells and at IDH1 R132H was > 6.30 in each case.

For `C=C(CO)c1cc(-c2cc(C#N)c(N3CCN(C(=O)CCOC)[C@H](C)C3)nc2C2CC2)ccn1` [Compound 653, (R)-2-cyclopropyl-2′-(3-hydroxyprop-1-en-2-yl)-6-(4-(3-methoxypropanoyl)-3-methylpiperazin-1-yl)-[3,4′-bipyridine]-5-carbonitrile], the pIC50 in the assay on HT1080 cells and on IDH1 R132H was > 6.30 each time.

In the case of `C=Cc1cncc(-c2cc(C#N)c(N3CCN(C(=O)C4CC4)[C@H](C4CC4)C3)nc2C2CC2)n1` [Compound 515, (R)-2-(4-(cyclopropanecarbonyl)-3-cyclopropylpiperazin-1-yl)-6-cyclopropyl-5-(6-vinylpyrazin-2-yl)nicotinonitrile], the figures for the negative logarithm of the IC50 (pIC50) in the assay on HT1080 cells and at IDH1 R132H were 5.00 to 6.00 and 6.00 to 6.30, respectively.

Turning to `Cc1cc(-c2cc(C#N)c(N3CCN(C(=O)C4CC4)[C@H](C4CC4)C3)nc2C2CC2)c2cccnc2n1` [Compound 557, (R)-2-(4-(cyclopropanecarbonyl)-3-cyclopropylpiperazin-1-yl)-6-cyclopropyl-5-(2-methyl-1,8-naphthyridin-4-yl)nicotinonitrile], the negative logarithm of the IC50 (pIC50) with HT1080 cells is 6.00 to 6.30; at IDH1 R132H, > 6.30.

With `N#Cc1cc(Nc2ccnc3ccccc23)c(C2CC2)nc1N1CCN(C(=O)CC(F)(F)F)[C@H](C2CC2)C1` [Compound 560, (R)-6-cyclopropyl-2-(3-cyclopropyl-4-(3,3,3-trifluoropropanoyl)piperazin-1-yl)-5-(quinolin-4-ylamino)nicotinonitrile], the values for the pIC50 in the assay on HT1080 cells and at IDH1 R132H were 5.00 to 6.00 and > 6.30, respectively.

Consider `Cn1cc(-c2cc(C#N)c(N3CCN(C(=O)CC(F)(F)F)[C@H](C4CC4)C3)nc2C2CC2)c2ccccc2c1=O` [Compound 536, (R)-6-cyclopropyl-2-(3-cyclopropyl-4-(3,3,3-trifluoropropanoyl)piperazin-1-yl)-5-(2-methyl-1-oxo-1,2-dihydroisoquinolin-4-yl)nicotinonitrile], for which the pIC50 in the assay on HT1080 cells and on IDH1 R132H was > 6.30 in each case.

As to `N#Cc1ccnc(Nc2cc(C#N)c(N3CCN(C(=O)C[C@H]4CCO4)[C@H](C4CC4)C3)nc2C2CC2)n1` [Compound 808, 2-(5-cyano-2-cyclopropyl-6-((R)-3-cyclopropyl-4-(2-((R)-oxetan-2-yl)acetyl)piperazin-1-yl)pyridin-3-ylamino)pyrimidine-4-carbonitrile], the negative logarithm of the IC50 (pIC50) in the assay with HT1080 cells and at IDH1 R132H was > 6.30 in each case.

By pIC50 is commonly meant −log10 of the IC50, conventionally taken in molar units.

Values taken from US9856279B2 (AGIOS PHARMACEUTICALS, INC, priority 2011, dated 2018).
